The target in assay [1] is T1, dopamine receptors (Rattus norvegicus, UniProt P61169).
T1 construct: brains were immediately dissected on an ice-cold glass plate to remove corpus striatum; from tissue; host or cells: rat corpus striatum, washed homogenate (Sprague-Dawley CD males)
Kind of assay: Inhibition of ^3 H-spiroperidol binding to dopamine receptors (rat corpus striatum homogenate). Details: species or system rat (Sprague-Dawley CD). To be noted: 0.5 nM ^3 H-spiroperidol, 10 min at 37° C. Here is the method: The procedure was as follows:
Rats (Sprague-Dawley CD males, 250-300 g., Charles River Laboratories, Wilmington, Mass.) were decapitated, and brains were immediately dissected on an ice-cold glass plate to remove corpus striatum (~100 mg./brain). Tissue was homogenized in 40 volumes (1 g.+40 ml). of ice-cold 50 mM. […] The tissue suspension was placed in a 37° C. water bath for 5 minutes to insure inactivation of tissue monoamine oxidase and then kept on ice until used. The incubation mixture consisted of 0.02 ml. inhibitor solution (the desired concentration of the derivative to be tested in stock solution). […] Tubes were incubated in sequence for 10 minutes at 37° C. in groups of three, after which 0.9 ml. of each incubation tube was filtered through Whatman FG/B filters using a high vacuum pump. Each filter was placed in a scintillation vial, 10 ml. of liquid scintillation fluor was added and each vial was vigorously vortexed for about five seconds. Samples were allowed to stand over night, until filters were translucent, vortexed again and then counted 1.0 minute for radioactivity. Binding was calculated as femtomales (10^-15 moles) of ^3 H-spiroperidol bound per mg. protein. Controls (vehicle or 1 butaclamol, 10^-7 M; 4.4 mg. dissolved in 200 μl. glacial acetic acid, then diluted to 2.0 ml. with DDW for 10^-4 M stock solution, kept refrigerated), blank (d-butaclamol, 10^-7 M; (4.4 mg./2 ml.) for 10^-4 M stock solution, same protocol as 1-butaclamol); and inhibitor solutions were run in triplicate. […] Insoluble drugs were dissolved in 50% ethanol (1% ethanol incubation).
**DDW=Double Distilled Water.

Assay [2] has as its system amphetamine-induced symptoms (characteristic amphetamine behaviour of cage movement). Description: Antagonism of amphetamine symptoms in rats (rat amphetamine test). The format is in vivo. To be noted: block of cage movement in 50% of rats; for ED50: Rattus norvegicus, sc; for ED50, rat amphetamine test, 1 hr.: 60 min; for ED50, rat amphetamine test, 5 hr.: 300 min; for ED50, rat amphetamine test, 24 hr.: 1440 min. The source says:
The tranquilizing activity of the derivatives may be determined using the well known standard procedure-antagonism of amphetamine-induced symptoms in rats.
The effects of the above examples of Derivatives on prominent amphetamine-induced symptoms were studied in rats by a rating scale modeled after the one reported by Quinton and Halliwell, and Weissman. Rats were placed individually in a covered plastic cage measuring approximately 26 cm.×42 cm×16 cm. After a brief period of acclimation of the cage, the rats in each group, commonly, five animals per dose level, were treated subcutaneously (s.c.) with a selected dose of the Derivative to be tested. They were then treated 1, 5 and 24 hrs. later with d-amphetamine sulfate, 5 mg./kg. intraperitoneally (i.p.). […] The time of rating chosen coincides with the peak action of amphetamine which is 60-80 min. after dosing.

Where [3] appears, read: 1 h, s.c., d-amphetamine sulfate 5 mg/kg i.p. 1 hr after treatment, read-out: ED50, rat amphetamine test, 1 hr.
Setting [4] is: 5 h, read-out: ED50, rat amphetamine test, 5 hr., s.c., d-amphetamine sulfate 5 mg/kg i.p. 5 hr after treatment.
[5] abbreviates: 24 h, s.c., d-amphetamine sulfate 5 mg/kg i.p. 24 hr after treatment, read-out: ED50, rat amphetamine test, 24 hr.
Setting [6] is: s.c., d-amphetamine sulfate 5 mg/kg i.p. 1 hr after treatment.
The mark [7] stands for this setting: s.c., d-amphetamine sulfate 5 mg/kg i.p. 5 hr after treatment.
The mark [8] stands for this setting: s.c., d-amphetamine sulfate 5 mg/kg i.p. 24 hr after treatment.

Like-named read-outs stand apart in the source and are kept apart here.

T1 sequence (P61169 whole entry): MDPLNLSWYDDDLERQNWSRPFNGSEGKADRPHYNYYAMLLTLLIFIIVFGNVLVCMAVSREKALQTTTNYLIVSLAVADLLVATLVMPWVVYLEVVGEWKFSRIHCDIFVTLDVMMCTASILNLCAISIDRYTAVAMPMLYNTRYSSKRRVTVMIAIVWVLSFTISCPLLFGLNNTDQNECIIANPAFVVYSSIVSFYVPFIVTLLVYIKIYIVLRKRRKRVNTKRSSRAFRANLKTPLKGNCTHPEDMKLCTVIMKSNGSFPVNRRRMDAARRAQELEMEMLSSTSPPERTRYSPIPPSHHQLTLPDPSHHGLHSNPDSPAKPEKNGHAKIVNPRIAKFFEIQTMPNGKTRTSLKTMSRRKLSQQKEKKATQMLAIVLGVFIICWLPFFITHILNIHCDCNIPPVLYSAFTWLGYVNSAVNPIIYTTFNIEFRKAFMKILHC

One may read the IC50 as the concentration that gives 50% inhibition. The low end stands for greater potency in that assay, the high end for weaker potency in that assay. By ED50 is commonly meant the dose at which the effect has come halfway, by size or by number of responders. Molecule `NCCCCN1CC[C@H]2[C@H](C1)c1cc(F)ccc1N2c1ccc(F)cc1` (relative stereo) [Example 2, (±)2-(1'-amino-n-but-4'-yl)-5-(p-fluorophenyl)-8-fluoro-2,3,4,4a,5,9b-hexahydro-trans-4a,9b-1(H)-pyrido[4,3-b]indole] registered an IC50 in assay [1] of 24 nM. Also, the ED50 is 17.7 mg/kg in assay [2] (setting [3]), 4.5 to 11.5 mg/kg in assay [2] (setting [4]) and 17.7 mg/kg in assay [2] (setting [5]).

The molecule `CC(=O)NCCN1CC[C@H]2[C@H](C1)c1cc(F)ccc1N2c1ccc(F)cc1` (relative stereo) [Example 6, 2-(N-acetyl-2-aminoethyl)-5-(p-fluorophenyl)-8-fluoro-2,3,4,4a,5,9b-hexahydro-trans-4a,9b-1(H)-pyrido[4,3-b]indole] came in with a half-inhibitory concentration (IC50) in assay [1] of 16 nM. For the same molecule, the figures for the median effective dose (ED50) in assay [2] (setting [3]), in assay [2] (setting [4]) and in assay [2] (setting [5]) were 0.11 mg/kg, 0.36 mg/kg and 1 mg/kg, respectively.

On to `Cc1ccc(S(=O)(=O)NCCCCN2CC[C@H]3[C@H](C2)c2cc(F)ccc2N3c2ccc(F)cc2)cc1` (relative stereo) [Example 16, (±) 2-(N--p-toluenesulfonyl-1'-amino-n-but-4'-yl)], for which the ED50 in assay [2] (setting [3]) and in assay [2] (setting [4]) was 1 mg/kg throughout.

`CC(=O)NCCCN1CC[C@H]2[C@H](C1)c1cc(F)ccc1N2c1ccc(F)cc1` (relative stereo) [Example 7, (±) 2-(N--acetyl-1'-amino-n-prop-3-yl)] returned an IC50 in assay [1] of 10 nM.

Consider `COc1ccccc1C(=O)NCCCCN1CC[C@H]2[C@H](C1)c1cc(F)ccc1N2c1ccc(F)cc1` (relative stereo) [Example 15, (±) 2-[N--(o-methoxybenzoyl)-1'-amino-n-but-4'-yl]], for which, in assay [1], the concentration for half-maximal inhibition (IC50) amounted to 14 nM. The ED50 came to 0.45 mg/kg in assay [2] (setting [3]), 0.18 mg/kg in assay [2] (setting [4]) and 1 mg/kg in assay [2] (setting [5]).

Regarding `O=C(NCCCCN1CC[C@H]2[C@H](C1)c1cc(F)ccc1N2c1ccc(F)cc1)c1ccccc1` (relative stereo) [Example 13, (±) 2-(N--benzoyl-1'-amino-n-but-4'-yl)], the ED50 in assay [2] (setting [3]) is 0.1 to 0.3 mg/kg; in assay [2] (setting [4]), 0.01 to 0.03 mg/kg; in assay [2] (setting [5]) it was 0.3 to 1 mg/kg.

As for `CC(=O)NCCCCN1CC[C@H]2[C@H](C1)c1ccccc1N2c1ccccc1` (relative stereo) [Example 17, (±) 2-(N--acetyl-1'-amino-n-but-4'-yl)-5-phenyl-2,3,4,-4a,9b-hexahydro-trans-4a,9b-1(H)-pyrido[4,3-b]indole], in assay [1], the half-maximal inhibitory concentration (IC50) is 16 nM.

Regarding `CC(=O)NCCCCCN1CC[C@H]2[C@H](C1)c1cc(F)ccc1N2c1ccc(F)cc1` (relative stereo) [Example 8, (±) 2-(N--acetyl-1'-amine-n-pent-5'-yl)], the concentration for half-maximal inhibition (IC50) in assay [1] came out at 9 nM. In addition, the ED50 in assay [2] (setting [3]) worked out at 0.01 mg/kg; in assay [2] (setting [4]) it was 0.004 mg/kg; in assay [2] (setting [5]) it was 0.4 mg/kg.

In assay [1], `CC(=O)NCCCCCCCN1CC[C@H]2[C@H](C1)c1cc(F)ccc1N2c1ccc(F)cc1` (relative stereo) [Example 10, (±) 2-(N--acetyl-1'-amino-n-hept-7'-yl)] yielded an IC50 of 9 nM. Moreover, the median effective dose (ED50) in assay [2] (setting [3]) came out at 0.09 mg/kg; in assay [2] (setting [4]), 0.018 mg/kg; in assay [2] (setting [5]), 0.05 mg/kg.

The molecule `CC(=O)NCCCCN1CCC2C(C1)c1cc(F)ccc1N2c1ccc(F)cc1` (single isomer, unassigned; (+)) [Example 11, (+) enantiomer of 2-(N--acetyl-1-'-amino-n-but-4-yl)] yielded an IC50 in assay [1] of 4.7 nM. The “ED50, rat amphetamine test, 1 hr.” value in assay [2] (setting [6]) came out at 0.02 mg/kg. Further, in assay [2] (setting [7]), the “ED50, rat amphetamine test, 5 hr.” value is given as 0.006 mg/kg. The “ED50, rat amphetamine test, 24 hr.” value in assay [2] (setting [8]) worked out at 0.28 mg/kg.

The molecule `CC(=O)NCCCCN1CC[C@H]2[C@H](C1)c1cc(F)ccc1N2c1ccc(F)cc1` (relative stereo) [Example 3, (±)2-(N-acetyl-1'-amino-n-but-4'-yl)-5-(p-fluorophenyl)-8-fluoro-2,3,4,4a,5,9b-hexahydro-trans-4a,9b-1(H)-pyrido[4,3-b]indole] registered an IC50 in assay [1] of 13 nM. For the same molecule, the ED50 in assay [2] (setting [3]) turned out to be 0.02 mg/kg; in assay [2] (setting [4]) it was 0.006 mg/kg; in assay [2] (setting [5]) it was 0.66 mg/kg.

On to `CCOC(=O)NCCCCN1CC[C@H]2[C@H](C1)c1cc(F)ccc1N2c1ccc(F)cc1` (relative stereo) [Example 14, (±) 2-(N--ethoxycarbonyl-1'-amino-n-but-4'-yl)], for which, in assay [1], the concentration for half-maximal inhibition (IC50) was determined as 11 nM. The 50% effective dose (ED50) in assay [2] (setting [3]) came to 0.05 mg/kg; in assay [2] (setting [4]), 0.02 mg/kg; in assay [2] (setting [5]) it was 0.3 mg/kg.

`CC(=O)NCCCCN1CCC2C(C1)c1cc(F)ccc1N2c1ccc(F)cc1` (single isomer, unassigned; (-)) [Example 12, (-) enantiomer of 2-(N--acetyl-1'-amino-n-but-4'-yl)]: the IC50 in assay [1] was found to be 1000 nM. In assay [2] (setting [6]), the “ED50, rat amphetamine test, 1 hr.” value turned out to be 1 mg/kg. Besides, the “ED50, rat amphetamine test, 5 hr.” value in assay [2] (setting [7]) was found to be 1 mg/kg. Besides, in assay [2] (setting [8]), the “ED50, rat amphetamine test, 24 hr.” value is given as 1 mg/kg.

The molecule `CC(=O)NCCCCCCN1CC[C@H]2[C@H](C1)c1cc(F)ccc1N2c1ccc(F)cc1` (relative stereo) [Example 9, (±) 2-(N--acetyl-1'-amino-n-hex-6'-yl)] registered a 50% inhibitory concentration (IC50) in assay [1] of 8 nM. The ED50 in assay [2] (setting [3]) came to 0.023 mg/kg; in assay [2] (setting [4]), 0.002 mg/kg; in assay [2] (setting [5]), 0.032 mg/kg.

The values above are taken from US4352807A, “Hexahydro-trans-pyridoindole neuroleptic agents” (Pfizer Inc., priority 1980, dated 1982).
